Experimental data: patent US8030360B2, “Anti-wrinkle agent” (Kemphys Ltd., priority 2004, dated 2011)
pIC50: −log10 of the molar value.

What was measured:
horny layer = experiment: Horny layer turnover test (dansylchloride fluorescence); type: in vivo, guinea pig; details: 50 ppm, 10 μl/1 cm diameter, once a day (FIG. 3)
Description: Actions on turnover of horny layer were evaluated by using guinea pigs. Hartley albino male guinea pigs of approximately 750 g in weight, whose hair was removed using depilatory wax three days prior to the experiment, were applied occlusively with 5% Vaseline ointment of dansylchloride for 24 hours using a patch test Finn Chamber, and then the skin of the guinea pigs were wiped to remove the ointment. A portable fluorometer was used for irradiation with ultraviolet rays having maximum at around 338 nm, and the fluorescent intensity of the dansylchloride was measured. Simultaneously, fluorescent intensity of an area where dansylchloride was not applied (blank value) was measured in the same manner. After the measurement of the fluorescent intensities, 10 μl/1 cm diameter of RA and Am80 at 50 ppm concentration were applied once a day. During the measurement, skin irritancy was also determined according to the criteria indicated in Example 1. […] Cumulative skin irritancy was simultaneously evaluated according to the criteria in Example 1, and the results were obtained as shown in FIG. 4.

guinea pig skin [1] = experiment: Histological findings of guinea pig skin at the end of the application period; type: in vivo
Description: (§1) Histological tests were conducted to study the irritancy of a retinoid on guinea pig skin and correlation between an irritancy threshold and a retinoid action threshold. Each of male guinea pigs of approximately in a weight of 600 g was applied once every day with 1, 5, 10, 50, or 100 ppm of retinoic acid (RA) or Am80 (4-[(5,6,7,8-tetrahydro-5,5,8,8-tetramethyl-2-naphthalenyl)carbamoyl]benzoic acid) as an ethanol solution on the dorsal skin (5 days a week). As a control, only the solvent (ethanol) was applied. The skin responses were evaluated according to the following 5-step criteria, and average values were calculated for each concentration of the drugs by using results obtained from three of the guinea pigs. • 0: No skin response was observed. • 1: Slight erythema was observed. • 2: Obvious erythema was observed. • 3: Strong erythema or slight edema/crust was observed. • 4: Obvious edema/crust, or more severe changes was observed.
(§2) Further, concentration dependencies of cumulative skin irritancy of RA and Am80 for the same application period were compared.

skin grooves = experiment: Planarization action on skin surface formation (skin groove), silicon resin replicas and image analysis; type: in vivo, hairless mice; details: 0.01% in ethanol
Description: Changes which appear on skin grooves after applications of RA and Am80 (each at a concentration of 0.01% in ethanol) were studied by using hairless mice (Skh-h4l, 16 weeks old, female, 5 mice per group). The applications were conducted once a day, 5 days a week, and for 30 days. As a control, only ethanol was applied. On the next day of the day of last application, replicas of skin surfaces were created by using a silicon resin, and various parameters that represent features of the shape of the skin surface were determined by using an apparatus for image analysis. […] Further, the decrease in KSD correlated to epidermal thickening.

[2] = system: Normal human keratinocyte; experiment: Human keratinocyte growth (amount of DNA as index); type: cell-based; details: amount of DNA as index of HK growth
Description: (§3) Normal human keratinocyte obtained from human chest skin (HK, Kurabo) was cultured, and the cells were added with RA or Am80 (0.01% in dimethyl sulfoxide) on the second day. The cells on the second to 13th day after the addition of the agents were used as samples. By using the amount of DNA as an index of HK growth, and by using compositional ratio (K1/K16) of differentiated keratin (k1; 68 kD) and proliferating keratin (K16; 48 kD) in one-dimension SDS-PAGE as an index of differentiation, differentiation suppression rate was determined as a value wherein the ratio of the indexes of each sample and control applied only with a solvent was subtracted from 1. […] IC50 was 10^−6 to 10^−7 M for RA, and 10^−9 M for Am80.

guinea pig skin [3] = experiment: Cumulative skin irritancy test of a retinoid on guinea pig skin; type: in vivo
Description: as §1, §2

[4] = reported in WO96/30009; cited from earlier work
fibroblast cells = experiment: Acceleration of EGF-dependent growth of fibroblast cells; type: cell-based; details: low serum level
Description: The growth of fibroblast cells, being suspended under a low serum level, is dependent on growth factors, and the growth will start by the addition of EGF. The acceleration effects of RA and Am80 on the EGF-dependent growth were evaluated. RA gave the maximum effect (40% promotion) at 10^−6 M, and Am80 gave the maximum effect (30% promotion) at 10^−8 M. The acceleration effect of Am80 (10%) was also observed at 10^−10 Ml.

[5] = system: Normal human keratinocyte; experiment: Human keratinocyte differentiation (K1/K16 keratin ratio, SDS-PAGE); type: cell-based
Description: as §3

Structure (SMILES)	action on horny cell layer turnover (horny layer)	skin thickening and inflammatory changes compared with RA (guinea pig skin [1])	epidermal thickening (skin grooves; for 30 days (FIG. 6))	planarization changes of skin surface on replicas (skin grooves; once a day, 5 days a week, for 30 days)	pIC50 ([2]; Homo sapiens, Keratinocyte, read-out: IC50 of cell growth suppression)	skin responses (guinea pig skin [3]; 10 ppm or less, during this period (FIG. 2))	skin response compared with retinoic acid (guinea pig skin [3]; RA and Am80 at the same concentration (FIG. 1))	effect on dermatopathy caused by rays of sunlight [4]	Emax at 0.01 µM (fibroblast cells; Fibroblast, at 10^−8 M, read-out: maximum effect on EGF-dependent growth (promotion)) [%]	acceleration effect on EGF-dependent growth (fibroblast cells; at 10^−10 Ml) [%]	differentiation suppression rates as compared to that by RA ([5]; Am80 versus RA) [times]	cell differentiation suppression action compared with RA ([5]; K1/K16 ratio as index of differentiation)	concentration at which cell differentiation suppression action is also observed ([5]; as low as)	IC50 of cell growth suppression [2]	irritancy threshold (cumulative skin irritancy) (guinea pig skin [3]; same application period, FIG. 2 (9th day of application))	Emax at 1 µM (fibroblast cells; Fibroblast, at 10^−6 M, read-out: maximum effect on EGF-dependent growth (promotion)) [%]
CC1(C)CCC(C)(C)c2cc(NC(=O)c3ccc(C(=O)O)cc3)ccc21 [Am80, 4-[(5,6,7,8-tetrahydro-5,5,8,8-tetramethyl-2-naphthalenyl)carbamoyl]benzoic acid]	almost no effect	more slight skin thickening and inflammatory changes even when applied at 10 times higher concentration	obvious changes	The same action was observed	9.00	no skin responses	much weaker skin response than retinoic acid and induces extremely slow skin response	ineffective	30	10	1.3 to 1.7	stronger than that of RA	10^−8 to 10^−10 M	–	–	–
CC1=C(/C=C/C(C)=C/C=C/C(C)=C/C(=O)O)C(C)(C)CCC1 [RA, retinoic acid, reference compound]	–	–	–	–	–	–	–	–	–	–	–	–	–	10^−6 to 10^−7 M	less than 5 ppm	40
